Each structure is given as a SMILES string. Inconclusive results and toxic doses are left out. Peptide text beside a SMILES is read from it. * marks the point of attachment. Boc = CC(C)(C)OC(=O)*

The values that follow come from PubChem BioAssay AID330 (DTP/NCI, 2004).

The test system of the assay is P388 leukemia ip, CD2F1 mice, survival T/C. As to the kind of experiment: NCI In Vivo Anticancer Drug Screen. Data for tumor model P388 Leukemia (intraperitoneal) in CD2F1 (CDF1) mice. The note with it: endpoint: median survival time, higher = longer survival. An outline of the steps: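 Mice carrying the transplanted tumor received test compound or vehicle. Survival was recorded in each group, and the value is the treated-group measurement divided by that of the vehicle-treated control group.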

The mark [1] stands for this setting: dose: 100.0 mg/kg/injection, schedule: Q01DX009 (ip), vehicle: saline.
Where [2] appears, read: dose: 200.0 mg/kg/injection, schedule: Q01DX009 (ip), vehicle: saline.
Where [3] appears, read: dose: 50.0 mg/kg/injection, schedule: Q01DX005 (ip), vehicle: Klucel (hydroxypropylcellulose) (HPC).
Where [4] appears, read: dose: 100.0 mg/kg/injection, schedule: Q01DX005 (ip), vehicle: Klucel (hydroxypropylcellulose) (HPC).
The mark [5] stands for this setting: dose: 200.0 mg/kg/injection, schedule: Q01DX005 (ip), vehicle: Klucel (hydroxypropylcellulose) (HPC).
The mark [6] stands for this setting: dose: 50.0 mg/kg/injection, schedule: Q01DX009 (ip), vehicle: Klucel (hydroxypropylcellulose) (HPC).
The mark [7] stands for this setting: dose: 100.0 mg/kg/injection, schedule: Q01DX009 (ip), vehicle: Klucel (hydroxypropylcellulose) (HPC).
Where [8] appears, read: dose: 200.0 mg/kg/injection, schedule: Q01DX009 (ip), vehicle: Klucel (hydroxypropylcellulose) (HPC).
Setting [9] is: dose: 60.0 mg/kg/injection, schedule: Q01DX005 (ip), vehicle: saline with Tween-80.
Setting [10] is: dose: 120.0 mg/kg/injection, schedule: Q01DX005 (ip), vehicle: saline with Tween-80.
The mark [11] stands for this setting: dose: 240.0 mg/kg/injection, schedule: Q01DX005 (ip), vehicle: saline with Tween-80.
Where [12] appears, read: dose: 50.0 mg/kg/injection, schedule: Q01DX009 (ip), vehicle: saline.

Turning to `O=C1CSc2ncccc2N1c1ccc([N+](=O)[O-])cn1`, the T/C (dose: 50.0 mg/kg/injection, schedule: Q01DX009 (ip), vehicle: suspension in saline) was 105 % of control; the T/C under setting [1] is 100 % of control; the T/C (dose: 100.0 mg/kg/injection, schedule: Q01DX009 (ip), vehicle: suspension in saline) was 101 % of control; the T/C under setting [2] was 96 % of control; the T/C (dose: 200.0 mg/kg/injection, schedule: Q01DX009 (ip), vehicle: suspension in saline) is 101 % of control.

For `COc1cc(OC)c(/C=N/Nc2cc(C)c3ccc(OC)cc3n2)c(OC)c1`, the T/C is, setting by setting: under setting [3], 105 % of control; under setting [4], 113 % of control; under setting [5], 114 % of control.

For the molecule `Nc1cc(C(=O)Nc2ccc(C3=NCCN3)cc2)ccc1C(=O)Nc1ccc(C2=NCCN2)cc1`, the T/C reads like this: (dose: 20.0 mg/kg/injection, schedule: Q04DX003 (ip), vehicle: saline with Tween-80) 168 % of control; (dose: 30.0 mg/kg/injection, schedule: Q04DX003 (ip), vehicle: saline with Tween-80) 204 % of control; (dose: 44.0 mg/kg/injection, schedule: Q04DX003 (ip), vehicle: saline with Tween-80) 277 % of control; (dose: 66.0 mg/kg/injection, schedule: Q04DX003 (ip), vehicle: saline with Tween-80) 181 % of control.

`COc1ccc(OC)c(NC(=O)Nc2nc(C)cs2)c1`: the T/C is, setting by setting: under setting [6], 92 % of control; under setting [7], 93 % of control; under setting [8], 90 % of control.

In the case of `NC(Cc1cc(I)c(Oc2cc(I)c(O)c(I)c2)c(I)c1)C(=O)O` (stereo not given), the T/C by setting is: (dose: 0.25 mg/kg/injection, schedule: Q01DX009 (ip), vehicle: saline) 99 % of control; (dose: 0.5 mg/kg/injection, schedule: Q01DX009 (ip), vehicle: saline) 103 % of control; (dose: 1.0 mg/kg/injection, schedule: Q01DX009 (ip), vehicle: saline) 99 % of control; (dose: 2.0 mg/kg/injection, schedule: Q01DX009 (ip), vehicle: saline) 94 % of control; (dose: 4.0 mg/kg/injection, schedule: Q01DX009 (ip), vehicle: saline) 88 % of control.

For `CCN(CC)CCOc1ccc(Cl)c(Cl)c1`, the T/C (dose: 50.0 mg/kg/injection, schedule: Q01DX005 (ip), vehicle: saline with Tween-80) was 101 % of control; the T/C (dose: 100.0 mg/kg/injection, schedule: Q01DX005 (ip), vehicle: saline with Tween-80) is 106 % of control; the T/C (dose: 200.0 mg/kg/injection, schedule: Q01DX005 (ip), vehicle: saline with Tween-80) is 106 % of control.

In the case of `O=C1C2=C(Nc3cc([N+](=O)[O-])ccc3N2)OC1c1ccccc1` (stereo not given), the T/C runs as follows: (dose: 60.0 mg/kg/injection, schedule: Q01DX005 (ip), vehicle: Klucel (hydroxypropylcellulose) (HPC)) 91 % of control; (dose: 120.0 mg/kg/injection, schedule: Q01DX005 (ip), vehicle: Klucel (hydroxypropylcellulose) (HPC)) 91 % of control; (dose: 240.0 mg/kg/injection, schedule: Q01DX005 (ip), vehicle: Klucel (hydroxypropylcellulose) (HPC)) 99 % of control.

Consider `COC(=O)c1nc(=S)[nH]c(C(=O)OC)c1C(=O)c1cccnc1`, for which the T/C is 108 % of control (dose: 60.0 mg/kg/injection, schedule: Q01DX005 (ip), vehicle: saline) and 110 % of control (dose: 120.0 mg/kg/injection, schedule: Q01DX005 (ip), vehicle: saline).

On to `CC1=C[C@H]2C[C@]3(C)CC[C@H]4[C@H](C)C(=O)O[C@@H]4[C@@]13OO2`, for which the T/C is, setting by setting: (dose: 0.75 mg/kg/injection, schedule: Q01DX005 (ip), vehicle: Klucel (hydroxypropylcellulose) (HPC)) 107 % of control; (dose: 1.5 mg/kg/injection, schedule: Q01DX005 (ip), vehicle: Klucel (hydroxypropylcellulose) (HPC)) 103 % of control; (dose: 3.0 mg/kg/injection, schedule: Q01DX005 (ip), vehicle: Klucel (hydroxypropylcellulose) (HPC)) 90 % of control; (dose: 6.0 mg/kg/injection, schedule: Q01DX005 (ip), vehicle: Klucel (hydroxypropylcellulose) (HPC)) 111 % of control.

Regarding `CN1CCC/C1=C/C(=O)c1ccccc1`, the T/C (dose: 100.0 mg/kg/injection, schedule: Q04DX003 (ip), vehicle: saline) is 100 % of control and the T/C (dose: 200.0 mg/kg/injection, schedule: Q04DX003 (ip), vehicle: saline) is 111 % of control.

Regarding `CCCCCCCC/C=C\CCCCCCCC(=O)OCCCCCCCCCCCCCC`, the T/C runs as follows: (dose: 12.5 mg/kg/injection, schedule: Q01DX001 (ip), vehicle: other) 100 % of control; (dose: 25.0 mg/kg/injection, schedule: Q01DX001 (ip), vehicle: other) 90 % of control; (dose: 50.0 mg/kg/injection, schedule: Q01DX001 (ip), vehicle: other) 100 % of control.

With `CNc1ccc2[nH]c3ccccc3c2c1`, the T/C was 104 % of control under setting [9], 112 % of control under setting [10] and 104 % of control under setting [11].

`COc1ccnc(-c2cc(OC)cc(/C(N)=N/O)n2)c1`: the T/C is, setting by setting: under setting [9], 100 % of control; under setting [10], 105 % of control; under setting [11], 100 % of control.

Turning to `C/C(N)=N\O`, the T/C under setting [12] was 94 % of control, the T/C under setting [1] is 114 % of control and the T/C under setting [2] is 104 % of control.

On to `COCCOCCOCCOCCOCCOCCOCCOCCOCCOCCOCCOCCOCCOCCOC(=O)CCn1cc(F)c(=O)[nH]c1=O`, for which the T/C was 97 % of control (dose: 34.0 mg/kg/injection, schedule: Q04DX002 (ip), vehicle: saline); 111 % of control (dose: 68.0 mg/kg/injection, schedule: Q04DX002 (ip), vehicle: saline); 102 % of control (dose: 136.0 mg/kg/injection, schedule: Q04DX002 (ip), vehicle: saline); 100 % of control (dose: 272.0 mg/kg/injection, schedule: Q04DX002 (ip), vehicle: saline).

As for `COC(=O)C(Br)CN1C(=O)c2ccccc2C1=O` (stereo not given), the T/C is, setting by setting: (dose: 25.0 mg/kg/injection, schedule: Q01DX009 (ip), vehicle: other) 102 % of control; (dose: 50.0 mg/kg/injection, schedule: Q01DX009 (ip), vehicle: other) 101 % of control; (dose: 100.0 mg/kg/injection, schedule: Q01DX009 (ip), vehicle: other) 106 % of control; (dose: 200.0 mg/kg/injection, schedule: Q01DX009 (ip), vehicle: other) 104 % of control; (dose: 400.0 mg/kg/injection, schedule: Q01DX009 (ip), vehicle: other) 104 % of control.

On to `CCOP1(=S)NNP(=S)(OCC)NN1` (stereo not given), for which the T/C was 96 % of control under setting [3], 93 % of control under setting [4] and 104 % of control under setting [5].

In the case of `CCN(c1ccccc1)S(=O)(=O)c1cc(N)ccc1C`, the T/C is, setting by setting: (dose: 25.0 mg/kg/injection, schedule: Q01DX009 (ip), vehicle: Klucel (hydroxypropylcellulose) (HPC)) 101 % of control; under setting [6], 100 % of control; under setting [7], 110 % of control; under setting [8], 97 % of control; (dose: 400.0 mg/kg/injection, schedule: Q01DX009 (ip), vehicle: Klucel (hydroxypropylcellulose) (HPC)) 93 % of control.

Turning to `CCCOC1CC(C)(O)Cc2cc3c(c(O)c21)C(=O)c1c(O)cc2c(c1C3=O)OC1OC2(C)C(O)C(N(C)C)C1O` (stereo not given), the T/C runs as follows: (dose: 1.56 mg/kg/injection, schedule: Q01DX009 (ip), vehicle: other) 124 % of control; (dose: 3.13 mg/kg/injection, schedule: Q01DX009 (ip), vehicle: other) 150 % of control.

For `C1CCN(c2c3c(nc4nnnn24)CCC3)CC1`, the T/C was 96 % of control under setting [12], 87 % of control under setting [1] and 90 % of control under setting [2].

In the case of `COC(=O)C(Cc1ccccc1)NC(=O)C(Cc1ccccc1)NC(=O)OC(C)(C)C` (stereo not drawn) (Boc-Phe-Phe-OMe; configuration not given here), the T/C was 97 % of control under setting [3], 95 % of control under setting [4] and 101 % of control under setting [5].

As for `C=CC1(C)CCC(C(C)C(=O)/C=C/C(C)(C)O)O1` (stereo not given), the T/C by setting is: (dose: 22.0 mg/kg/injection, schedule: Q01DX005 (ip), vehicle: Klucel (hydroxypropylcellulose) (HPC)) 105 % of control; (dose: 44.0 mg/kg/injection, schedule: Q01DX005 (ip), vehicle: Klucel (hydroxypropylcellulose) (HPC)) 113 % of control; (dose: 88.0 mg/kg/injection, schedule: Q01DX005 (ip), vehicle: Klucel (hydroxypropylcellulose) (HPC)) 114 % of control; (dose: 176.0 mg/kg/injection, schedule: Q01DX005 (ip), vehicle: Klucel (hydroxypropylcellulose) (HPC)) 118 % of control.
